Earlier results in US20230201369A1 (THE TEXAS A&M UNIVERSITY SYSTEM, priority 2020, published 2023).

Conditions: estimated

C=CCN1CC[C@]23c4c5ccc(O)c4O[C@H]2C(=O)CC[C@@]3(O)[C@H]1C5 [naloxone, 17-Allyl-4,5α-epoxy-3,14-dihydroxymorphinan-6-one]
oral bioavailability: 0.9-2%
